Measured values reported in patent US20250090541A1, “Methods for Treating Neurodegenerative Disorders” (Praetego Inc, priority 2022, published 2025).

What was measured:
Assay type in all cases: in vivo
[1] = test system: carboxymethyl Lysine (CML); assay: Carboxymethyl lysine (CML) by LC-MS/MS in terminal plasma and brain cortex, htau mice
Method: (§1) Female and male human tau mice (Jax #005491) were treated daily for 25 weeks with PTG-630 trihydrochloride at 1 and 5 mg/kg in drinking water starting at 10 weeks of age (before cognitive deficits appear).
Terminal plasma and brain cortex were also analyzed for carboxymethyl Lysine (CML), a prominent advanced glycation end-product (AGE), by an LC-MS/MS quantitative chemical analysis method. PTG-630 and PTG-670 were developed as potent AGE inhibitors and tested for amelioration of PNS and CNS damage due to the extensive work that implicated AGE formation as a causative factor in the development of neurodegenerative pathologies.

4-hydroxynonal (4-HNE) = assay: Lipid peroxidation, 4-HNE Oxiselect ELISA in hippocampus homogenates, htau mice
Method: as §1
Lipid peroxidation was assessed using the 4-hydroxynonal (4-HNE) Oxiselect ELISA in hippocampus homogenates. […] It is believed that damage to neuronal tissue occurs to a significant extent via induction of oxidative stress that leads to lipoxidation, so that amelioration by PTG-630 reflects their efficacy via anti-oxidant mechanisms.

NeuN = assay: Western blot of hippocampus, human tau mice: NeuN; conditions: 5 mg/kg
Method: as §1
(§2) Mouse Hippocampus were processed for Western blotting analysis of (A) Drebrin (actin binding protein in dendritic spines, role in neuronal growth, a decrease=contributing factor in the pathogenesis of memory disturbance), (B) PSD95 (a post-synaptic protein, role in the regulation of excitatory synapse maturity), and (C) NeuN (neuronal nuclear antigen, biomarker for neurons, decrease=neuronal loss) (FIG. 3).

htau mice [2] = assay: Intraepidermal nerve fiber (IENF) quantification in footskin, htau mice
Text: A standard measure of associated PNS damage to neuronal tissue and its amelioration is IENF, seen alongside changes in the CNS. […] The amelioration of these PNS effects confirms that PTG-630 readily enters and targets neuronal tissue, whether in the brain or elsewhere in the body.

human tau mice = assay: Object recognition test, human tau mice
Text: The human tau mouse is a model of sporadic dementia that expresses human non-mutant tau (6 isoforms) in the absence of endogenous mouse tau. The model develops age-associated pathology, with hyperphosphorylated tau detected in cell bodies and dendrites by 3 months of age (Andorfer et al., 2003; J Neurochem 86, 582-590, doi:10.1046/j.1471-4159.2003.01879.x). These mice display abnormal spatial learning by 6 months of age and impaired learning in the Morris water maze with memory loss by 12 months of age, as well as memory deficits in the Barnes maze by 6 months of age (Marquez et al, 2021).
as §1
Learning and memory were assessed using the Barnes maze test and the object recognition test at 6-8, 12-13, 18-19 and 24-25 weeks. Corneal nerves were imaged by corneal confocal microscopy (CCM) at week 6, 9, 12, 18 and 25. Data represent male and female results combined, mean±sem.

PSD95 = assay: Western blot of hippocampus, human tau mice: PSD95; conditions: 1 and 5 mg/kg, tendency
Method: as §1, §2

htau mice [3] = assay: Motor nerve conduction velocity (NCV), htau mice; conditions: htau mice with or without treatment, 8, 16 and 25 weeks
Method: as §1
Motor nerve conduction velocity (NCV) was measured at 8, 16 and 25 weeks after treatment.

## Cc1ncc(CN2CCOCC2)c(-c2ncc[nH]2)c1O [PTG-630, 4-(1H-imidazol-2-yl)-2-methyl-5-(morpholinomethyl)pyridin-3-ol]
[1]; female htau mice, 5 mg/kg
  CML levels in cortex: significantly (p<0.05) reduced
[1]; male
  CML levels in cortex: No significant difference
[1]; male and female
  CML levels in plasma: No significant difference
4-hydroxynonal (4-HNE); 1 mg/kg
  4-HNE levels in hippocampus: significantly (p<0.01) reduced HINE levels to control levels
4-hydroxynonal (4-HNE); 5 mg/kg
  4-HNE levels in hippocampus: significantly (p<0.01) reduced HINE levels to control levels
NeuN
  neuronal loss (NeuN) in hippocampus: partially alleviated
Htau mice [2]; female mice
  IENF in footskin: No difference was noted
Htau mice [2]; male mice, 1 mg/kg
  decreased IENF in footskin: significantly (p<0.05) ameliorated
Human tau mice; 1 mg/kg in drinking water
  short term episodic memory deficits in Object recognition test: partially ameliorated
Human tau mice; 5 mg/kg in drinking water for 17 weeks
  short term episodic memory deficits in Object recognition test: significantly alleviated
Human tau mice; FIG. 2 legend, dose not stated
  short-term episodic memory (recognition index): partially prevented
PSD95
  levels of PSD95 protein in hippocampus: dose-dependly ameliorate
Htau mice [3]
  Nerve conduction velocity: not significantly different from control levels
